Values after ≈ are worked out from the molar mass of the structure shown.
Assays:
Assay in all cases: ≥ marks a high value that may be exact or a test limit, other limits are often not marked, values filed in µg/mL are converted to µM
[1] = system: Legionella longbeachae ATCC 33484
[2] = system: Candida albicans ATCC 90028
[3] = system: Staphylococcus aureus ST1065
[4] = system: Streptococcus pyogenes ATCC 19615
[5] = system: Acinetobacter baumannii ATCC 19606
[6] = system: Klebsiella pneumoniae ATCC 13883
[7] = system: Staphylococcus aureus ATCC BAA-44
[8] = system: Legionella pneumophila ATCC 33155
[9] = system: Legionella feeleii ATCC 35072
Escherichia coli ML-35p = system: Escherichia coli ML-35p
[10] = system: Leishmania infantum (promastigote)
[11] = system: Enterococcus faecalis ATCC 29212
[12] = system: Staphylococcus aureus ATCC 25923
Listeria ivanovii = system: Listeria ivanovii
[13] = system: Escherichia coli ATCC 25922
[14] = system: Candida parapsilosis ATCC 22019
[15] = system: Staphylococcus aureus ATCC 43300
Saccharomyces cerevisiae = system: Saccharomyces cerevisiae
[16] = system: Pseudomonas aeruginosa ATCC 27853
[17] = system: Legionella pneumophila Paris
[18] = system: Salmonella enterica subsp. enterica serovar Enteritidis
[19] = system: Escherichia coli K12 MG1655
[20] = system: Staphylococcus aureus 68 HER 1049
Shigella dysenteriae = system: Shigella dysenteriae
[21] = system: Candida albicans ATCC 2002
[22] = system: Klebsiella pneumoniae ATCC 700603
Escherichia coli IS37# = system: Escherichia coli IS37#
[23] = system: Pseudomonas aeruginosa CMCCB 1010
[24] = system: Klebsiella pneumoniae IS59#
Escherichia coli IS117# = system: Escherichia coli IS117#
[25] = system: Enterobacter cloacae ATCC 13047
[26] = system: Pseudomonas aeruginosa IS350#
Escherichia coli IS218# = system: Escherichia coli IS218#
[27] = system: Staphylococcus aureus IS10#

| MIC [2] | MIC [11] | MIC [12] | MIC [13] | MIC [14] | MIC [16] | MIC (Shigella dysenteriae) | MIC [21] | MIC [22] | MIC (Escherichia coli IS37#) | MIC [23] | MIC (Escherichia coli IS117#) | MIC [25] | Compound | further results |
| --- | --- | --- | --- | --- | --- | --- | --- | --- | --- | --- | --- | --- | --- | --- |
| 6 µM (≈ 8.53 µg/mL) | 6 µM (≈ 8.53 µg/mL) | 3 µM (≈ 4.27 µg/mL) | 3 µM (≈ 4.27 µg/mL) | 25 µM (≈ 35.5 µg/mL) | 6 µM (≈ 8.53 µg/mL) | – | – | – | – | – | – | – | CC[C@H](C)[C@H](NC(=O)CNC(=O)[C@H](CCCCN)NC(=O)[C@H](CC(C)C)NC(=O)[C@@H](N)Cc1ccccc1)C(=O)N[C@H](C(=O)NCC(=O)N[C@@H](CCSC)C(=O)N[C@@H](CC(C)C)C(=O)NCC(=O)N[C@@H](CCCCN)C(=O)N[C@@H](CC(C)C)C(=O)N[C@@H](Cc1ccccc1)C(N)=O)C(C)C [FLKGIVGMLGKLF] | MIC [1]: 3.12 µM (≈ 4.44 µg/mL); MIC [3]: 3 µM (≈ 4.27 µg/mL); MIC [4]: 1 µM (≈ 1.42 µg/mL); MIC [5]: 3 µM (≈ 4.27 µg/mL); MIC [6]: 3 µM (≈ 4.27 µg/mL); MIC [7]: 3 µM (≈ 4.27 µg/mL); MIC [8]: 3.12 µM (≈ 4.44 µg/mL); MIC [9]: 3.12 µM (≈ 4.44 µg/mL); MIC (Escherichia coli ML-35p): 3 µM (≈ 4.27 µg/mL); MIC [10]: 10 µM (≈ 14.2 µg/mL); MIC (Listeria ivanovii): 3 µM (≈ 4.27 µg/mL); MIC [15]: 3 µM (≈ 4.27 µg/mL); MIC (Saccharomyces cerevisiae): 3 µM (≈ 4.27 µg/mL); MIC [17]: 3.12 µM (≈ 4.44 µg/mL); MIC [18]: 6 µM (≈ 8.53 µg/mL) |
| – | – | – | – | – | – | – | – | – | – | – | – | – | CC[C@H](C)[C@H](NC(=O)CNC(=O)[C@H](CC(C)C)NC(=O)[C@H](Cc1ccccc1)NC(=O)[C@H](CC(C)C)NC(=O)[C@H](CCCCN)NC(=O)[C@H](Cc1c[nH]c2ccccc12)NC(=O)[C@@H](N)CCCCN)C(=O)N[C@@H](CC(C)C)C(=O)N[C@@H](C)C(=O)N[C@H](C(=O)N[C@@H](CC(C)C)C(=O)N[C@@H](CCCCN)C(=O)N[C@H](C(=O)N[C@@H](CC(C)C)C(=O)O)C(C)C)C(C)C [KWKLFLGILAVLKVL] | MIC [19]: 18.4 µM (≈ 32 µg/mL); MIC [20]: 18.4 µM (≈ 32 µg/mL) |
| 17.9 µM (≈ 20 µg/mL) | 17.9 µM (≈ 20 µg/mL) | 4.48 µM (≈ 4.99 µg/mL) | 8.97 µM (≈ 9.98 µg/mL) | 17.9 µM (≈ 20 µg/mL) | – | 17.9 µM (≈ 20 µg/mL) | 17.9 µM (≈ 20 µg/mL) | 17.9 µM (≈ 20 µg/mL) | ≥ 44.8 µM | ≥ 44.8 µM | ≥ 44.8 µM | 8.97 µM (≈ 9.98 µg/mL) | C[C@@H](O)[C@@H]1NC(=O)CNC(=O)[C@H](CCCCN)NC(=O)[C@H](Cc2ccccc2)NC(=O)[C@@H](NC(=O)[C@H](Cc2ccccc2)NC(=O)[C@@H](N)CCCN=C(N)N)CSSC[C@@H](C(=O)NCC(=O)O)NC(=O)[C@@H]2CCCN2C1=O [RFCFKGTPCG] | MIC [24]: ≥ 44.8 µM |
| 3.83 µM (≈ 9.99 µg/mL) | 1.91 µM (≈ 5 µg/mL) | 3.83 µM (≈ 9.99 µg/mL) | 1.91 µM (≈ 5 µg/mL) | 7.66 µM (≈ 20 µg/mL) | 7.66 µM (≈ 20 µg/mL) | 3.83 µM (≈ 9.99 µg/mL) | 1.91 µM (≈ 5 µg/mL) | 3.83 µM (≈ 9.99 µg/mL) | 19.1 µM (≈ 50 µg/mL) | 3.83 µM (≈ 9.99 µg/mL) | 7.66 µM (≈ 20 µg/mL) | 3.83 µM (≈ 9.99 µg/mL) | CC[C@H](C)[C@H](NC(=O)[C@@H](N)C(C)C)C(=O)N1CCC[C@H]1C(=O)N[C@@H](Cc1ccccc1)C(=O)N[C@H](C(=O)N[C@@H](C)C(=O)N[C@@H](CO)C(=O)N[C@H](C(=O)N[C@@H](C)C(=O)N[C@@H](C)C(=O)N[C@@H](CCC(=O)O)C(=O)N[C@@H](CCSC)C(=O)N[C@@H](CCSC)C(=O)N[C@@H](CCC(N)=O)C(=O)N[C@@H](Cc1cnc[nH]1)C(=O)N[C@H](C(=O)N[C@@H](Cc1ccc(O)cc1)C(=O)N[C@H]1CSSC[C@@H](C(=O)O)NC(=O)[C@H](CCCN=C(N)N)NC(=O)[C@H](CCCCN)NC(=O)[C@H](CO)NC(=O)[C@H](C)NC(=O)[C@H](C)NC1=O)C(C)C)C(C)C)C(C)C [VIPFVASVAAEMMQHVYCAASKRC] | MIC [26]: 19.1 µM (≈ 50 µg/mL); MIC (Escherichia coli IS218#): 19.1 µM (≈ 50 µg/mL); MIC [27]: 19.1 µM (≈ 50 µg/mL) |

Source: DBAASP
